According to publication PMC6450887, “Metabolic resistance of the D-peptide RD2 developed for direct elimination of amyloid-β oligomers” (Scientific Reports, 2019):
“And” between values parts separate entries of the source, which are not always exact repeats. Equal values may be shown once. Each block holds one molecule with its values, some of them ahead of it. Non-standard residues stand in square brackets, D forms with d. Residues, ends and D or L forms follow the SMILES beside them. No end group written: not given here. *: point of attachment. X1 = C[C@H](O)[C@H](C(=O)*)N1CN2CCC[C@@H]2C1=O

Experiments:
CYP1A = target: T1, CYP1A (Homo sapiens, UniProt P05177); assay: CYP isoform inhibition in human liver microsomes (Cyprotex); settings: human, human liver microsomes, probe ethoxyresorufin (0.5 µM)
T1 sequence (P05177 2-516): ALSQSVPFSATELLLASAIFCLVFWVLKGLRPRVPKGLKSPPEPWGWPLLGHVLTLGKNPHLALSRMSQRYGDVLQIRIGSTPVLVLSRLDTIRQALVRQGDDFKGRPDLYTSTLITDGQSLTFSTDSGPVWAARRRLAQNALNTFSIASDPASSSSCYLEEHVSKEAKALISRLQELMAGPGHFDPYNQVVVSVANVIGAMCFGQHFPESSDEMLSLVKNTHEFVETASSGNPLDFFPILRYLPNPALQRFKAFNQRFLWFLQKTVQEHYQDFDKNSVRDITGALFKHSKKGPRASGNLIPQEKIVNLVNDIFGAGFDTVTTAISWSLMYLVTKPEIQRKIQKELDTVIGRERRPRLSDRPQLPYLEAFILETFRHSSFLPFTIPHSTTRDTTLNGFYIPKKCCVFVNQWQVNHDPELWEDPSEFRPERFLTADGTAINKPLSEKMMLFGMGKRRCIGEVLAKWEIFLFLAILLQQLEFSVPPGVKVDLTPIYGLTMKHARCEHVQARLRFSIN
Procedure: The experiments were performed by Cyprotex. […] The reactions were terminated by methanol and the generated metabolites were monitored by LC-MS/MS or fluorescence. […] All assays were performed sevenfold. […] For all other substrates, the termination plates were centrifuged at 2,500 rpm and 4 °C for 30 min and aliquots of the supernatants were combined and transferred to fresh 96-well plates. Formic acid in deionized water (final concentration 0.1%) containing internal standard was added to the supernatants prior to cassette analysis by LC-MS/MS. A decrease in the formation of the metabolite compared to the vehicle control was used to calculate the IC50 values.

[1] = target: T2, human D-amino acid oxidase (hDAAO) (Homo sapiens, UniProt P14920); assay: hDAAO activity assay (substrate test); type: biochemical; settings: 0.2 mM D-alanine as substrate, 2 h incubation
T2 construct: made in house; host or cells: E. coli
Procedure: (§1) For hDAAO activity and inhibition assays, the tested substances were incubated with 0.17 U/mL recombinant hDAAO, 0.1 U/mL horseradish peroxidase (Roche, Switzerland) and 4 µM flavin adenine dinucleotide (FAD) in 50 mM sodium phosphate buffer (pH 7.4). […] The Amplex UltraRed reagent is a fluorogenic substrate for horseradish peroxidase that reacts with the hydrogen peroxide produced by the oxidative deamination of D-amino acids to build Amplex UltroxRed, a fluorescent reaction product, which served as indicator for hDAAO activity. All enzymatic assays were conducted at room temperature in 96-well plate format using an automated liquid-handler system (epMotion 5075; Eppendorf, Hamburg, Germany). Recombinant hDAAO was overexpressed in E. coli and purified as previously reported.
To investigate whether RD2 acts as substrate for hDAAO, the enzyme was incubated with 2.9 mM RD2, horseradish peroxidase and FAD for up to 6 h and the fluorescence signal of the Amplex UltroxRed reagent was measured (sample values). Positive control measurements using 0.2 mM D-alanine as substrate were performed in parallel. Additionally, negative control measurements without substrates were performed. The relative emission at 590 nm was determined by subtracting control measurements to sample values.

[2] = Comparison of RD2 metabolite profiles across species: human liver microsomes; type: in vitro ADME
Procedure: (§2) The preparation of the media was performed as described before in Elfgen et al.[24]. Preparation of simulated gastric and intestinal fluid (SGF & SIF) was done according to the European Pharmacopoeia 7.0. Plasma samples were obtained from human blood of a volunteer donor. Pooled human liver microsomes were purchased from Sekisui XenoTech (Kansas City, USA; H1000, Lot: 0710494 and 1210270; H1500, Lot: 1210079), from Sigma-Aldrich (St. Louis, USA; M0692, Lot: SLBL1433V; M0567, Lot: SLBR2706V and SLBN7300V) and from Gibco, Thermo Fisher Scientific (Waltham, USA; HMMCPL, Lot: PL050; HMMCPM, Lot: PL039). Pooled Sprague Dawley rat liver microsomes were purchased from Sigma-Aldrich (St. Louis, USA; M9066, Lot: SLBN0707V) and from Gibco, Thermo Fisher Scientific (Waltham, USA; RTMCPL, Lot: RT053). Pooled cynomolgus monkey liver microsomes were purchased from Gibco, Thermo Fisher Scientific (Waltham, USA; MKMCPL, Lot: MK062) and from Sekisui XenoTech (Kansas City, USA; P2000, Lot: 1210334). The liver microsomes were diluted in an NADPH regenerating system (NRS).
(§3) For the stability tests, 150 µM RD2 or L-RD2 was incubated in SGF, SIF, human plasma and human liver microsomes in triplicate at 37 °C with slight shaking for different time periods. To prevent microbial contaminations in long-term plasma incubations, 0.1% sodium azide was added to the solutions. Microsomal long-term activity was examined by incubating microsomes without peptide for up to 24 h and adding L-RD2 after 8 and 24 h. The ability to degrade L-RD2 served as indicator for their activity. For the comparison of RD2 metabolite profiles across species, 150 µM RD2 was incubated in human, rat and cynomolgus liver microsomes at 37 °C for 2 and 24 h. The peptides were extracted by precipitating the proteins with trichloroacetic acid (TCA) and subsequent centrifugation, as described previously in Elfgen et al.[24]. Peptides immediately extracted from the media and precipitated media without peptides served as controls.
For the comparison of RD2 metabolite profiles across species (see 2.3), mobile phases were acetonitrile (A) and water (B) each supplemented with 0.1% TFA. The gradient ran from 0 to 100% solvent A and is described in detail in Table S1. The chromatographic RD2 metabolite profiles were screened for potential human-specific metabolites. RD2 and the major RD2 metabolite present after 24 h of incubation in human liver microsome batches 7 and 8, HSM-3, were purified by RP-HPLC. Mobile phases were acetonitrile (A) and water (B) each supplemented with 0.15% TFA. The samples were separated isocratically at 10% solvent A for 30 min. RD2 as well as HSM-3 were collected and the samples were freeze-dried subsequently. The amount of the purified HSM-3 was calculated based on a calibration curve of 10 to 100 µM RD2 extracted from human liver microsomes.

[3] = Comparison of RD2 metabolite profiles across species: rat liver microsomes; type: in vitro ADME; settings: rat microsome batches, LC-MS
Procedure: as §2
as §3, with “The peptides were extracted by precipitating the proteins with trichloroacetic acid (TCA) and subsequent centrifugation, as described previously in Elfgen et al.[24]. Peptides immediately extracted from the media and precipitated media without peptides served as controls.” left out
(§4) For the comparison of RD2 metabolite profiles across species (see 2.3), mobile phases were acetonitrile (A) and water (B) each supplemented with 0.1% TFA. […] The amount of the purified HSM-3 was calculated based on a calibration curve of 10 to 100 µM RD2 extracted from human liver microsomes.

[4] = Comparison of RD2 metabolite profiles across species: cynomolgus liver microsomes; type: in vitro ADME, cynomolgus monkey; settings: cynomolgus microsome batches, LC-MS
Procedure: as §2
as §3, with “The peptides were extracted by precipitating the proteins with trichloroacetic acid (TCA) and subsequent centrifugation, as described previously in Elfgen et al.[24]. Peptides immediately extracted from the media and precipitated media without peptides served as controls.” left out
as §4

MTT cell viability assay = type: cell-based, rat; settings: cell viability
Procedure: (§5) Rat PC12 (pheochromocytoma) cells (Leibniz Institute DSMZ, Braunschweig, Germany) were cultivated in Dulbecco’s Modified Eagle Medium (DMEM) supplemented with 10% fetal bovine serum, 5% horse serum and 1% penicillin-streptomycin. 10,000 cells per well were seeded on collagen A-coated 96-well plates (Thermo Fisher Scientific, Waltham, USA) and incubated in a 95% humidified atmosphere with 5% CO2 at 37 °C for 24 h. Samples with untreated RD2 and RD2 or HSM-3 purified from human liver microsomes (see 2.8) in 10 mM sodium phosphate buffer (pH 7.4) were prepared. Buffer without peptides and Triton X-100 (cytotoxic compound) served as controls. The samples were added to the PC12 cells in quadruple and incubated in 95% humidified atmosphere with 5% CO2 at 37 °C for 24 h. Final concentrations were 2 µM untreated RD2, purified RD2, purified HSM-3 and 0.125% Triton X-100. Cell viability was then measured using the Cell Proliferation Kit I (MTT) (Roche, Basel, Switzerland) according to the manufacturer’s instruction. The final absorbance of the formazan product was determined as the absorbance at 570 nm subtracted by the absorbance at 660 nm. All results were normalized to cells that were treated with buffer only. The experiments were performed in triplicate.

[5] = Stability of purified HSM-3 stored in solution (MALDI-MS, UHPLC-ESI-QTOF-MS); type: physicochemical; settings: stored in solution at low temperatures
[6] = target: T2, human D-amino acid oxidase (hDAAO); assay: hDAAO inhibition assay; type: biochemical; settings: 7.5 mM D-serine, 30 min
Procedure: as §1
To examined whether RD2 inhibits hDAAO activity, the enzyme was incubated with 7.5 mM D-serine alone and together with 0 to 625 µM RD2 or sodium benzoate (a known hDAAO inhibitor)[30], horseradish peroxidase and FAD for 30 min and the fluorescence signal of Amplex UltroxRed was recorded. hDAAO residual activity in the presence of different concentrations of RD2 or sodium benzoate was expressed relatively to the values recorded in the absence of ligands (set as 100% activity). The data were fit to a four-parameter equation to determine the curve top, bottom, IC50 and Hill slope.

[7] = Stability in simulated intestinal fluid (SIF), RP-HPLC; type: in vitro ADME; settings: a few seconds
Procedure: as §2
as §3, with “The peptides were extracted by precipitating the proteins with trichloroacetic acid (TCA) and subsequent centrifugation, as described previously in Elfgen et al.[24]. Peptides immediately extracted from the media and precipitated media without peptides served as controls.” left out
(§6) For sample analysis from stability tests (see 2.3), mobile phases were acetonitrile (A) and water (B) each supplemented with 0.15% trifluoroacetic acid (TFA) (v/v). The samples were measured isocratically at 10% solvent A for 30 min. […] A chromatographic metabolite profile of L-RD2 in SIF was recorded with the same mobile phases but using a gradient from 0 to 30% solvent A in 30 min.

[8] = Stability in simulated gastric fluid (SGF), RP-HPLC; type: in vitro ADME; settings: 37 °C, read-out: peptide degraded
Procedure: as §2, with “The liver microsomes were diluted in an NADPH regenerating system (NRS).” left out
as §6

[9] = Stability in human plasma, RP-HPLC; type: in vitro ADME; settings: female, 37 °C
Procedure: as §2, §3
For sample analysis from stability tests (see 2.3), mobile phases were acetonitrile (A) and water (B) each supplemented with 0.15% trifluoroacetic acid (TFA) (v/v). The samples were measured isocratically at 10% solvent A for 30 min. This run conditions allowed us to detect smallest chemical changes including the differentiation between the original compound and a deamidated version (Fig. S1). RD2 and L-RD2 can potentially be deamidated at two sites, the C-terminus and the asparagine at position seven. Peak areas of the unmetabolized peptides after different incubation times were normalized to the peptides’ peak areas after direct extraction from the media. […] A chromatographic metabolite profile of L-RD2 in SIF was recorded with the same mobile phases but using a gradient from 0 to 30% solvent A in 30 min.

[10] = Stability in human liver microsomes, RP-HPLC / UHPLC-ESI-QTOF-MS; type: in vitro ADME
Procedure: as §2, §3
For sample analysis from stability tests (see 2.3), mobile phases were acetonitrile (A) and water (B) each supplemented with 0.15% trifluoroacetic acid (TFA) (v/v). The samples were measured isocratically at 10% solvent A for 30 min. This run conditions allowed us to detect smallest chemical changes including the differentiation between the original compound and a deamidated version (Fig. S1). RD2 and L-RD2 can potentially be deamidated at two sites, the C-terminus and the asparagine at position seven. Peak areas of the unmetabolized peptides after different incubation times were normalized to the peptides’ peak areas after direct extraction from the media. […] A chromatographic metabolite profile of L-RD2 in SIF was recorded with the same mobile phases but using a gradient from 0 to 30% solvent A in 30 min. […]

[11] = system: Rat PC12 (pheochromocytoma) cells; assay: MTT cell viability assay; type: cell-based; settings: 0.125% Triton X-100, PC12 cells, 24 h, MTT
Procedure: as §5

T2 sequence (P14920 whole entry): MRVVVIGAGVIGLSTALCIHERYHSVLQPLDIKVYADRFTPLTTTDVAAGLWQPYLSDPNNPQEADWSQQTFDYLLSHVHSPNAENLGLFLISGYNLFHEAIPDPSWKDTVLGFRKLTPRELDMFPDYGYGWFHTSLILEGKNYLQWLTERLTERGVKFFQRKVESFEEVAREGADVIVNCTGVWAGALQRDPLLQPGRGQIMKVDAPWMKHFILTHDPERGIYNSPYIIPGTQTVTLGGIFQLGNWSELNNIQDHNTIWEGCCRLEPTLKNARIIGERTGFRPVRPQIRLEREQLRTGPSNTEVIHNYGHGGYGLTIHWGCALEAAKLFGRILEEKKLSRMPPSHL

Molecule: O=c1cc(-c2ccccc2)oc2c1ccc1ccccc12 [Alpha-naphthoflavone, reference compound]
- IC50 (CYP1A): 0.0781 µM

- recorded emission at 590 nm [1]: 61125 ± 2120 AU
Molecule: C[C@@H](N)C(=O)O [D-alanine]

- metabolite relative to the parent compound ([2]; human microsome batches 7 and 8, 2 h): 1% and 5%
- metabolite relative to the parent compound ([2]; human microsome batches 7 and 8, 24 h): 31% and 52%
- detection of HSM-3 after incubation of RD2 ([2]; other six human microsome batches, LC-MS): not detectable
- detection of HSM-3 after incubation of RD2 [3]: not detectable
- detection of HSM-3 after incubation of RD2 [4]: not detectable
Molecule: CC(C)C[C@@H](NC(=O)[C@@H]([C@H](C)O)N1CN2CCC[C@@H]2C1=O)C(=O)N[C@H](Cc1c[nH]cn1)C(=O)N[C@@H](C(=O)N[C@H](Cc1c[nH]cn1)C(=O)N[C@H](CC(N)=O)C(=O)N[C@H](CCCNC(=N)N)C(=O)N[C@H](CCCNC(=N)N)C(=O)N[C@H](CCCNC(=N)N)C(=O)N[C@H](CCCNC(=N)N)C(=O)N[C@H](CCCNC(=N)N)C(N)=O)[C@H](C)O [HSM-3] (X1-[dL][dH][dT][dH][dN][dR][dR][dR][dR][dR]-NH2; C-terminus assumed)
- viability at 2 µM (MTT cell viability assay): 99 ± 3%
- stability of purified HSM-3 in solution [5]: instable and reacted back to RD2

Molecule: O=C([O-])c1ccccc1.[Na+] [sodium benzoate]
- decrease in hDAAO activity ([6]; 625 µM): 92.8 ± 0.1% and 93 ± 0.1%
- IC50 ([6]; read-out: IC50 hDAAO (four-parameter fit)): 7 µM

- detection of the peptide after incubation in SIF [7]: could not be detected
Molecule: KLVFFRRRRRR-NH2

- metabolised at 24 h, 150 µM [8]: 23 ± 4%
- metabolised at 24 h, 150 µM ([9]; 150 µM, within one day, read-out: peptide degraded): 92 ± 4%
- half-life at 150 µM ([9]; read-out: half-life (first order kinetics fit) (converted)): 2 h
Molecule: PTLHTHNRRRRR-NH2 [L-RD2, reference compound]
- metabolization in SIF ([7]; 150 µM): completely metabolized within a few seconds
- deamidation in human liver microsomes ([10]; UHPLC-ESI-QTOF-MS): increasingly metabolized to the one-fold deamidated species
- metabolised at 0.5 h, 150 µM ([10]; pooled human liver microsomes, 150 µM, 37 °C, within 30 min, read-out: peptide degraded): 87 ± 1%

Molecule: Triton X-100 [reference compound]
- cell viability [11]: 14 ± 1%
